Results on 15 molecules are retold here after US20130165475A1, “DEUTERIUM-ENRICHED HETEROCYCLIC COMPOUNDS AS KINASE INHIBITORS” (ASCEPION PHARMACEUTICALS, INC., priority 2010, published 2013).

Series [1] deals with T1, PDGFRβ (Homo sapiens, UniProt P09619).
T1 construct: expressed in transfected cells; host or cells: CHO cells
Nature of the series: PDGFRβ cell-based assay (ELISA, phosphor-/total PDGFRβ in transfected CHO cells). To be noted: compound at 100 nM; CHO cells transfected with full length PDGFRβ; FBS stimulation; read-out: % PDGFRβ kinase activity remains. From the text:
A standard cell-based assay for PDGFRβ kinase activity can be used to test or screen the compounds of this invention and to identify PDGFRβ antagonists. In this example, ELISA kits (R&D Systems, Inc., Minneapolis, Minn. 55413, USA) were used.
The activity of PDGFRβ in cells depended on its autophosphorylation level by various factors including growth factors. In order to induce the cell to produce PDGFRβ, full length of PDGFRβ sequence was cloned into PC-DNA3.1 vector, the plasmid was then transfected into CHO cells. After 48 hours, the expression of PDGFRβ in transfected CHO cells was confirmed by regular western blotting.
A compound to be tested was first dissolved in DMSO to a concentration of 10 mM and stored at −20° C. One day before the screening, CHO cells transfected with full length PDGFRβ plasmid were grown in DMEM medium without the presence of serum. On the day of screening procedure, the compounds with various concentration in DMSO (from 0.5 nM to 500 nM) were added into DMEM medium, two hours later, 20% of FBS (Fetal Bovine Serum) was added into the medium to stimulate the production of phosphor-PDGFRβ. Cell lysate from approximately 5×10^5 transfected CHO cells were reacted with anti-phosphor PDGFRβ or anti-total PDGFRβ antibody in 96 well plates, in the presence of detection antibody. The phosphor-PDGFRβ or total PDGFRβ were detected with Streptavidin-HRP (R&D Systems), followed by chemiluminescent detection. The level of PDGFRβ kinase activity was quantified as the ratio between the amount of phosphor- and that of total PDGFRβ proteins.
(In general: ELISA stands for enzyme-linked immunosorbent assay.)

Series [2] relates to Rat liver microsome. Nature of the series: Liver microsomal stability assay, rat. Type of series: in vitro ADME. Also noted: key: A: the percentage of a compound remains is greater than that of its deuterium non-enriched counterpart; B: a result otherwise. To be noted: 40 μM, 37° C., 30 min, 1 mg/ml microsome proteins; class relative to deuterium non-enriched counterpart. As for the experimental part:
A standard liver microsomal stability assay can be used to test or screen the compounds of this invention and to identify compounds with enhanced metabolic stability due to the enrichment of deuterium in the compounds. Liver microsome proteins prepared from different species such as mouse and rat were obtained from a commercial source (Research Institute for Liver Diseases, Shanghai, China). The assay was conducted in 1.5% potassium hydrogenphosphate (K2HPO4) in the presence of liver microsome proteins at 1 mg/ml and supplemented with an […] (3.3 mM NADPH, 3.3 mM glucose-6-phosphate, 6 units/ml G6PDase, and 3.3 mM magnesium chloride). Test compound was added into the assay mixture to a final concentration of 40 μM and incubated at 37° C. for 0 or 30 minutes. The reaction was stopped by the addition of 20 μM Bifonazole/CAN. Samples were then centrifuged at 14000 rpm for 10 minutes to precipitate proteins. Supernatant were then transferred to microcentrifuge tubes and subject to reverse phase HPLC analysis to determine the concentration of test compound.
The percentage of compounds that remained in the assay reactions after a thirty-minute incubation at 37° C. is calculated as the ratio between the amount of compound remained after a thirty-minute and that after a zero-minute incubation.
(Liver microsomes are vesicles of endoplasmic reticulum, rich in cytochrome P450 enzymes.)

The target of series [3] is T2, VEGFR2 (Homo sapiens, UniProt P35968).
T2 construct: expressed in transfected cells; host or cells: CHO cells
Nature of the series: VEGFR2 cell-based assay (ELISA, phosphor-/total VEGFR2 in transfected CHO cells). To be noted: compound at 100 nM; CHO cells transfected with full length VEGFR2; FBS stimulation; read-out: % VEGFR2 kinase activity remains. From the text:
A standard cell-based assay for VEGFR2 kinase activity can be used to test or screen the compounds of this invention and to identify VEGFR2 antagonists. In this example, ELISA kits (R&D Systems, Inc., Minneapolis, Minn. 55413, USA) were used.
The activity of VEGFR2 in cells depended on its autophosphorylation level by various factors including growth factors. In order to induce the cell to produce VEGFR2, full length of VEGFR2 sequence was cloned into PC-DNA3.1 vector, the plasmid was then transfected into CHO cells. After 48 hours, the expression of VEGFR2 in transfected CHO cells was confirmed by regular western blotting.
A compound to be tested was first dissolved in DMSO to a concentration of 10 mM and stored at −20° C. One day before the test, CHO cells transfected with full length VEGFR2 plasmid were grown in Dulbecco's Modified Eagle Medium (DMEM) without the presence of serum. On the day of the test, the compounds with various concentrations in DMSO (from 0.5 nM to 500 nM) were added into DMEM. Two hours later, 20% of FBS (Fetal Bovine Serum) was added into the medium to stimulate the production of phosphor-VEGFR2. Cell lysate from approximately 5×10^5 transfected CHO cells were reacted with anti-phosphor VEGFR2 or anti-total VEGFR2 antibody in 96-well plates, in the presence of detection antibody. The phosphor-VEGFR2 or total VEGFR2 were detected with Streptavidin-HRP(R&D Systems), followed by chemiluminescent detection. The level of VEGFR2 kinase activity was quantified as the ratio between the amount of phosphor- and that of total VEGFR2 proteins.

Where a name gives a salt, the structure may show the parent alone.

T2 sequence (P35968 20-1356): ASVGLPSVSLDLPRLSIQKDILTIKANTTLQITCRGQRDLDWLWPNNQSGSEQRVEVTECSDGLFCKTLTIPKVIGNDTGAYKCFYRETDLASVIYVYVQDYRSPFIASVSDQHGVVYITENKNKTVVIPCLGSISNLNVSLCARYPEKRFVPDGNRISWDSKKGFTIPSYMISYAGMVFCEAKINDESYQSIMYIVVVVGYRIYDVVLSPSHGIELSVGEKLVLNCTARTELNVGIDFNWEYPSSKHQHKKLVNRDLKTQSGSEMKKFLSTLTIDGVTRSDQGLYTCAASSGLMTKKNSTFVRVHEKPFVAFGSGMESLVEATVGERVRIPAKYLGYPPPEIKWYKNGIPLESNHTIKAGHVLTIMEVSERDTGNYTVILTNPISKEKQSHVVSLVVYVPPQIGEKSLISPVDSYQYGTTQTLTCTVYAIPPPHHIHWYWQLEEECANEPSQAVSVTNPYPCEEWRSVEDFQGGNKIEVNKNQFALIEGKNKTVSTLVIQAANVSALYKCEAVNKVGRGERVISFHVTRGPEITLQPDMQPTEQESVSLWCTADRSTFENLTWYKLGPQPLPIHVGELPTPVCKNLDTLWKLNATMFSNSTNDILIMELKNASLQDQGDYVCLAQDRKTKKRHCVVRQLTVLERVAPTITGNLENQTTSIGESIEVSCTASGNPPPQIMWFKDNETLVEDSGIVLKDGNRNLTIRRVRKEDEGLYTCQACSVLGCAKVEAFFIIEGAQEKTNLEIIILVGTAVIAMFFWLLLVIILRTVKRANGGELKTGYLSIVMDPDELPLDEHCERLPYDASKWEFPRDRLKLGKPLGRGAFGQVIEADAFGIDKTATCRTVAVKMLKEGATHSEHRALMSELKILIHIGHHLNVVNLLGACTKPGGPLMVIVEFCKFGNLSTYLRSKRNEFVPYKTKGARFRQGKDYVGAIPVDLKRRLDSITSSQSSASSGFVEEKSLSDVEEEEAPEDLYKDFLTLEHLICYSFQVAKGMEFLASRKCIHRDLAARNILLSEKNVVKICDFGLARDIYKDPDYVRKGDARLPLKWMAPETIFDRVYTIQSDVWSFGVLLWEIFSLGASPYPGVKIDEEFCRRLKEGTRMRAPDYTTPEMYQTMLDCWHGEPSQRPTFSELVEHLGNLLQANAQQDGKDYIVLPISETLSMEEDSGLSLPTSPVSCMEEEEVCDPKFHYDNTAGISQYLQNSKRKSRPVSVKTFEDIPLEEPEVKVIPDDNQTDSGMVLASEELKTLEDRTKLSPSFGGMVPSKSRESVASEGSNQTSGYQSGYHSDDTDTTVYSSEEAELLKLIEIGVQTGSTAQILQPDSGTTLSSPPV
T1 sequence (P09619 33-1106): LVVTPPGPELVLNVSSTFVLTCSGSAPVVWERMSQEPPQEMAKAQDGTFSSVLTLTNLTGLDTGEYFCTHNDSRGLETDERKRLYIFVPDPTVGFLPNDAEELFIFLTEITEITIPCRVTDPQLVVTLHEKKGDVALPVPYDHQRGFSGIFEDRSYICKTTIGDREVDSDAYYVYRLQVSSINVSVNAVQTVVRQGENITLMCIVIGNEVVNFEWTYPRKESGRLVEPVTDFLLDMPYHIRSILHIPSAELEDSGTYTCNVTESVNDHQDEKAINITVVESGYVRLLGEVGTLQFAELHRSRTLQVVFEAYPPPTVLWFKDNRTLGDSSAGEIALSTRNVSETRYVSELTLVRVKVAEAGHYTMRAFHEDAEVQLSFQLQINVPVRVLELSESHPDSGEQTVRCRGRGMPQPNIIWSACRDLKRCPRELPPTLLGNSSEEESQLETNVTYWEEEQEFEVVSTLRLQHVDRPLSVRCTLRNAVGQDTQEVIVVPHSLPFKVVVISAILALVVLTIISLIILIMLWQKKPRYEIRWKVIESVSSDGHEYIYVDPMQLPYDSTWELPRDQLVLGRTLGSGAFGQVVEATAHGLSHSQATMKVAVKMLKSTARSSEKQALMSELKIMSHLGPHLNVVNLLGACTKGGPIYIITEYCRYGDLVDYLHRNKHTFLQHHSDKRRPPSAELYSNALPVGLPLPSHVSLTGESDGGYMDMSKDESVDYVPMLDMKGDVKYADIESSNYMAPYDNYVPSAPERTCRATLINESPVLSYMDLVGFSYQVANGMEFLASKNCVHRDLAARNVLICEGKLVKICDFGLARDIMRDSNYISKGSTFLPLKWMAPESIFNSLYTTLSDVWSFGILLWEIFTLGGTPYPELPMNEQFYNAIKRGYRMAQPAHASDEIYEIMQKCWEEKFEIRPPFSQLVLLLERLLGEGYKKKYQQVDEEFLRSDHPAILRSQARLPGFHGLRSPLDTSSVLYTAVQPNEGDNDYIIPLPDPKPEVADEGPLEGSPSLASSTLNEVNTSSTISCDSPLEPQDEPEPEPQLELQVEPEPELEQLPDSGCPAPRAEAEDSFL

As for `[2H]C(c1c[nH]c2ncccc12)n1ccc2c(NC(=O)Nc3cc(Cl)ccc3OC([2H])([2H])[2H])cccc21` (stereo not drawn) [Example 16, 1-[5-chloro-2-(trideuteriomethoxy)phenyl]-3-[1-[deuterio(1H-pyrrolo[2,3-b]pyridin-3-yl)methyl]indol-4-yl]urea], the remaining activity at 0.1 µM in series [1] is at least 70%; in series [3], under 70%. Besides, the “% of compound remained at the 30th minutes, Rat liver microsome” value (shortened to “% of compound remained”) in series [2] is “A”.

Take `[2H]C([2H])(c1ccnc2[nH]ccc12)n1ccc2c(NC(=O)Nc3cc(Cl)ccc3F)cccc21` [Example 12, 1-(5-chloro-2-fluorophenyl)-3-[1-[dideuterio(1H-pyrrolo[2,3-b]pyridin-4-yl)methyl]indol-4-yl]urea hydrochloride]: the figures for the remaining activity at 0.1 µM in series [1] and in series [3] were at least 70% and under 70%, respectively. In addition, the “% of compound remained” value in series [2] is given as “A”.

On to `[2H]C(c1c[nH]c2ncccc12)n1ccc2c(NC(=O)Nc3cccc(C)c3)cccc21` (stereo not drawn) [Example 22, 1-[1-[deuterio(1H-pyrrolo[2,3-b]pyridin-3-yl)methyl]indol-4-yl]-3-(m-tolyl)urea], for which the remaining activity at 0.1 µM in series [1] and in series [3] was under 70% throughout. Also, the “% of compound remained” value in series [2] is listed as “B”.

As to `[2H]C([2H])(c1ccnc2[nH]ccc12)n1ccc2c(NC(=O)Nc3cccc(C)c3)cccc21` [Example 14, 1-[1-[dideuterio(1H-pyrrolo[2,3-b]pyridin-4-yl)methyl]indol-4-yl]-3-(m-tolyl)urea hydrochloride], the remaining activity at 0.1 µM in series [1] and in series [3] was under 70% throughout. Moreover, the “% of compound remained” value in series [2] is given as “A”.

Turning to `[2H]C([2H])(c1ccnc2[nH]ccc12)N1CCc2c(NC(=O)Nc3cccc(C)c3)cccc21` [Example 13, 1-[1-[Dideuterio(1H-pyrrolo[2,3-b]pyridin-4-yl)methyl]indolin-4-yl]-3-(m-tolyl)urea hydrochloride], the remaining activity at 0.1 µM in series [1] and in series [3] was under 70% each time. For the same molecule, the “% of compound remained” value in series [2] is given as “A”.

As for `[2H]C([2H])(c1ccnc(N)c1)N1CCc2c(NC(=O)Nc3cc(Cl)ccc3OC)cccc21` [Example 1, 1-[1-[(2-Amino-4-pyridyl)-dideuteriomethyl]indolin-4-yl]-3-(5-chloro-2-methoxyphenyl)urea], the remaining activity at 0.1 µM in series [1] and in series [3] was under 70% in each case. Moreover, the “% of compound remained” value in series [2] is given as “A”.

Regarding `Cl.[2H]C([2H])([2H])Oc1ccc(Cl)cc1NC(=O)Nc1cccc2c1ccn2C([2H])([2H])c1ccnc2[nH]ccc12` [Example 8, 1-[5-chloro-2-(trideuteriomethoxy)phenyl]-3-[1-[dideuterio(1H-pyrrolo[2,3-b]pyridin-4-yl)methyl]indol-4-yl]urea hydrochloride], the remaining activity at 0.1 µM in series [1] and in series [3] was under 70% each time. The “% of compound remained” value in series [2] is given as “A”.

For `[2H]C(c1c[nH]c2ncccc12)N1CCc2c(NC(=O)Nc3cccc(C)c3)cccc21` (stereo not drawn) [Example 21, 1-[1-[Deuterio(1H-pyrrolo[2,3-b]pyridin-3-yl)methyl]indolin-4-yl]-3-(m-tolyl)urea], the remaining activity at 0.1 µM in series [1] and in series [3] was under 70% throughout. The “% of compound remained” value in series [2] is listed as “A”.

On to `[2H]C([2H])([2H])Oc1ccc(Cl)cc1NC(=O)Nc1cccc2c1ccn2C([2H])([2H])c1ccnc(N)c1` [Example 4, 1-[1-[(2-amino-4-pyridyl)-dideuteriomethyl]indol-4-yl]-3-[5-chloro-2-(trideuteriomethoxy)phenyl]urea], for which the remaining activity at 0.1 µM in series [1] was at least 70%; in series [3] it was under 70%. Also, in series [2], the “% of compound remained” value is “A”.

For the molecule `[2H]C(c1c[nH]c2ncccc12)N1CCc2c(NC(=O)Nc3cc(Cl)ccc3F)cccc21` (stereo not drawn) [Example 19, 1-(5-Chloro-2-fluorophenyl)-3-[1-[deuterio(1H-pyrrolo[2,3-b]pyridin-3-yl)methyl]indolin-4-yl]urea], the remaining activity at 0.1 µM in series [1] is at least 70%; in series [3] it was under 70%. In addition, the “% of compound remained” value in series [2] is on record as “B”.

`[2H]C(c1c[nH]c2ncccc12)N1CCc2c(NC(=O)Nc3cc(Cl)ccc3OC([2H])([2H])[2H])cccc21` (stereo not drawn) [Example 15, 1-[5-Chloro-2-(trideuteriomethoxy)phenyl]-3-[1-[deuterio(1H-pyrrolo[2,3-b]pyridin-3-yl)methyl]indolin-4-yl]urea]: the remaining activity at 0.1 µM was at least 70% in series [1] and under 70% in series [3]. Also, in series [2], the “% of compound remained” value is “A”.

Consider `[2H]C([2H])([2H])Oc1ccc(Cl)cc1NC(=O)Nc1cccc2c1ccn2Cc1ccnc(N)c1` [Example 6, 1-[1-[(2-amino-4-pyridyl)methyl]indol-4-yl]-3-[5-chloro-2-(trideuteriomethoxy)phenyl]urea], for which the values for the remaining activity at 0.1 µM in series [1] and in series [3] were under 70% and at least 70%, respectively. The “% of compound remained” value in series [2] is “A”.

`[2H]C(c1c[nH]c2ncccc12)n1ccc2c(NC(=O)Nc3cc(Cl)ccc3OC)cccc21` (stereo not drawn) [Example 18, 1-(5-chloro-2-methoxyphenyl)-3-[1-[deuterio(1H-pyrrolo[2,3-b]pyridin-3-yl)methyl]indol-4-yl]urea]: the remaining activity at 0.1 µM in series [1] and in series [3] was under 70% throughout. Moreover, in series [2], the “% of compound remained” value is “A”.

Turning to `[2H]C([2H])(c1ccnc2[nH]ccc12)N1CCc2c(NC(=O)Nc3cc(Cl)ccc3OC)cccc21` [Example 9, 1-(5-Chloro-2-methoxyphenyl)-3-[1-[dideuterio(1H-pyrrolo[2,3-b]pyridin-4-yl)methyl]indolin-4-yl]urea hydrochloride], the remaining activity at 0.1 µM in series [1] and in series [3] was under 70% throughout. Moreover, the “% of compound remained” value in series [2] is given as “A”.

For the molecule `[2H]C([2H])(c1ccnc2[nH]ccc12)n1ccc2c(NC(=O)Nc3cc(Cl)ccc3OC)cccc21` [Example 10, 1-(5-chloro-2-methoxyphenyl)-3-[1-[dideuterio(1H-pyrrolo[2,3-b]pyridin-4-yl)methyl]indol-4-yl]urea hydrochloride], the remaining activity at 0.1 µM in series [1] is at least 70%; in series [3] it was under 70%. In series [2], the “% of compound remained” value is on record as “B”.
